The structures appear in SMILES notation. “Also recorded” adds a separate entry of the source.

The nature of data set [1]: Toxicity of amidines in rats (standard laboratory procedure). The class given is in vivo. The method, then: Compounds having the structure represented by Formula I were synthesized in accordance with the appropriate procedures discussed previously. The reaction schemes shown in Charts I-III specifically identify the methodology used to synthesize the compounds of the respective examples. The compounds which were synthesized are shown in Table IA and the elemental analysis and melting points of the compounds are shown in Table IB. Most of the compounds were tested for toxicity in rats using standard laboratory procedure and the results of that toxicity testing are shown in Table XII. The compounds of Examples 31, 32, and 34 were not synthesized but may be synthesized in the general manner discussed previously.

Data set [2] deals with Pneumocystis carinii. The experiment in a line: Treatment of Pneumocystis carinii pneumonia in Sprague-Dawley rats (extent of disease by histologic score). The settings on record: for Extent of Disease by Histologic Score: number of animals with score 0.5 / Extent of disease by histologic score (combined): number of animals in scoring group 0.5: 0.5 = <10 cysts found per 2 sections; for Extent of Disease by Histologic Score: number of animals with score 1 / Extent of disease by histologic score (combined): number of animals in scoring group 1: 1 = scattered cysts, <5% of lung involved; for Extent of Disease by Histologic Score: number of animals with score 2 / Extent of disease by histologic score (combined): number of animals in scoring group 2: 2 = scattered cysts; for Extent of Disease by Histologic Score: number of animals with score 2: 5-10% lung involved or small foci of infection; for Extent of Disease by Histologic Score: number of animals with score 3 / Extent of disease by histologic score (combined): number of animals in scoring group 3: 3 = scattered cysts; for Extent of disease by histologic score (combined): number of animals in scoring group 0.5 / Extent of disease by histologic score (combined): number of animals in scoring group 1 / Extent of disease by histologic score (combined): number of animals in scoring group 2 / Extent of disease by histologic score (combined): number of animals in scoring group 3 / Extent of disease by histologic score (combined): number of animals in scoring group 4: Table XII composite; for Extent of disease by histologic score (combined): number of animals in scoring group 2: 5-10% of lung involved; for Efficacy in treating PCP compared with control: compound at 5 mg/kg. In kind it is in vivo, male Sprague-Dawley rats.

[3] abbreviates: 5 mg/kg i.v. daily, 14 days, 10-50% of lung involved with some intense areas of infection.
The mark [4] stands for this setting: 5 mg/kg i.v. daily, 14 days, 4 = >50% of lung involved with many intense areas of focal infection.
[5] abbreviates: tested at 5 mg/kg, 10-50% of lung involved.
Where [6] appears, read: tested at 5 mg/kg, 4 = >50% of lung involved.

Consider `N=C(N)c1ccc(OCCCCCOc2ccc(C(=N)N)cc2Cl)c(Cl)c1` [Example 25], for which the “Toxicity of amidines: Effect” value in data set [1] (rat, in vivo, 2.5 mg/kg) is “None”. In addition, in data set [2] (2.5 mg/kg i.v. daily, 14 days), the “Extent of Disease by Histologic Score: number of animals with score 0.5” value is reported as 0 animals, the “Extent of Disease by Histologic Score: number of animals with score 1” value stood at 0 animals and the “Extent of Disease by Histologic Score: number of animals with score 2” value amounted to 0 animals. Moreover, the “Extent of Disease by Histologic Score: number of animals with score 3” value in data set [2] (2.5 mg/kg i.v. daily, 14 days, 10-50% of lung involved with some intense areas of infection) amounted to 4 animals. Further, in data set [2] (2.5 mg/kg i.v. daily, 14 days, 4 = >50% of lung involved with many intense areas of focal infection), the “Extent of Disease by Histologic Score: number of animals with score 4” value came out at 4 animals. For the same molecule, in data set [2] (tested at 2.5 mg/kg), the “Extent of disease by histologic score (combined): number of animals in scoring group 0.5” value is listed as 0 animals, the “Extent of disease by histologic score (combined): number of animals in scoring group 1” value is listed as 0 animals and the “Extent of disease by histologic score (combined): number of animals in scoring group 2” value came to 0 animals. The “Extent of disease by histologic score (combined): number of animals in scoring group 3” value in data set [2] (tested at 2.5 mg/kg, 10-50% of lung involved) was 4 animals. In addition, in data set [2] (tested at 2.5 mg/kg, 4 = >50% of lung involved), the “Extent of disease by histologic score (combined): number of animals in scoring group 4” value turned out to be 4 animals.
`N=C(N)c1ccc(OCCCCCOc2ccc(C(=N)N)cc2[N+](=O)[O-])c([N+](=O)[O-])c1` [Example 13]: the “Toxicity of amidines: Effect” value in data set [1] (dose as in value, else not given in Table XIII (10 mg/kg test dose)) was “Acute toxicity, death at 10 mg/kg”. Further, in data set [2] (5 mg/kg i.v. daily, 14 days), the “Extent of Disease by Histologic Score: number of animals with score 0.5” value is reported as 3 animals, the “Extent of Disease by Histologic Score: number of animals with score 1” value worked out at 2 animals and the “Extent of Disease by Histologic Score: number of animals with score 2” value is given as 3 animals. In addition, the “Extent of Disease by Histologic Score: number of animals with score 3” value in data set [2] (setting [3]) was 0 animals. For the same molecule, the “Extent of Disease by Histologic Score: number of animals with score 4” value in data set [2] (setting [4]) is recorded as 0 animals. In data set [2] (tested at 5 mg/kg), the “Extent of disease by histologic score (combined): number of animals in scoring group 0.5” value was determined as 0 animals, the “Extent of disease by histologic score (combined): number of animals in scoring group 1” value was 2 animals and the “Extent of disease by histologic score (combined): number of animals in scoring group 2” value came to 4 animals. Besides, in data set [2] (setting [5]), the “Extent of disease by histologic score (combined): number of animals in scoring group 3” value is given as 2 animals. For the same molecule, the “Extent of disease by histologic score (combined): number of animals in scoring group 4” value in data set [2] (setting [6]) worked out at 0 animals.
On to `N=C(N)c1ccc(NCCCNc2ccc(C(=N)N)cc2[N+](=O)[O-])c([N+](=O)[O-])c1` [Example 35], for which the “Toxicity of amidines: Effect” value in data set [1] (tested at 5 mg/kg) is reported as “no toxicity”. Further, in data set [2] (5 mg/kg i.v. daily, 14 days), the “Extent of Disease by Histologic Score: number of animals with score 0.5” value is given as 0 animals, the “Extent of Disease by Histologic Score: number of animals with score 1” value was 0 animals and the “Extent of Disease by Histologic Score: number of animals with score 2” value is recorded as 0 animals. In addition, the “Extent of Disease by Histologic Score: number of animals with score 3” value in data set [2] (setting [3]) was 2 animals. In addition, the “Extent of Disease by Histologic Score: number of animals with score 4” value in data set [2] (setting [4]) stood at 6 animals. In data set [2] (tested at 5 mg/kg), the “Extent of disease by histologic score (combined): number of animals in scoring group 0.5” value was 0 animals, the “Extent of disease by histologic score (combined): number of animals in scoring group 1” value stood at 0 animals and the “Extent of disease by histologic score (combined): number of animals in scoring group 2” value came to 0 animals. The “Extent of disease by histologic score (combined): number of animals in scoring group 3” value in data set [2] (setting [5]) is listed as 2 animals. In addition, the “Extent of disease by histologic score (combined): number of animals in scoring group 4” value in data set [2] (setting [6]) amounted to 6 animals.
As to `COc1cc(C(=N)N)ccc1OCCCOc1ccc(C(=N)N)cc1OC` [Example 6], the “Toxicity of amidines: Effect” value in data set [1] (rat, in vivo, 5 mg/kg) is reported as “None”. In data set [2] (5 mg/kg i.v. daily, 14 days), the “Extent of Disease by Histologic Score: number of animals with score 0.5” value turned out to be 7 animals, the “Extent of Disease by Histologic Score: number of animals with score 1” value was determined as 1 animals and the “Extent of Disease by Histologic Score: number of animals with score 2” value is reported as 0 animals. Also, in data set [2] (setting [3]), the “Extent of Disease by Histologic Score: number of animals with score 3” value was found to be 0 animals. For the same molecule, in data set [2] (setting [4]), the “Extent of Disease by Histologic Score: number of animals with score 4” value stood at 0 animals. In addition, in data set [2] (tested at 5 mg/kg), the “Extent of disease by histologic score (combined): number of animals in scoring group 0.5” value is listed as 7 animals, the “Extent of disease by histologic score (combined): number of animals in scoring group 1” value was determined as 1 animals and the “Extent of disease by histologic score (combined): number of animals in scoring group 2” value stood at 0 animals. Further, the “Extent of disease by histologic score (combined): number of animals in scoring group 3” value in data set [2] (setting [5]) stood at 0 animals. In addition, the “Extent of disease by histologic score (combined): number of animals in scoring group 4” value in data set [2] (setting [6]) stood at 0 animals. The “Efficacy in treating PCP compared with control” value in data set [2] was “significantly better, at one half the dose, than the control”.
In the case of `COc1cc(C2=NCCN2)ccc1OCCCCCOc1ccc(C2=NCCN2)cc1OC` [Example 43], the “Toxicity of amidines: Effect” value in data set [1] (rat, in vivo, 5 mg/kg) was “no toxicity”. In data set [2] (5 mg/kg i.v. daily, 14 days), the “Extent of Disease by Histologic Score: number of animals with score 0.5” value was determined as 1 animals, the “Extent of Disease by Histologic Score: number of animals with score 1” value was 3 animals and the “Extent of Disease by Histologic Score: number of animals with score 2” value stood at 1 animals. In addition, the “Extent of Disease by Histologic Score: number of animals with score 3” value in data set [2] (setting [3]) is recorded as 2 animals. The “Extent of Disease by Histologic Score: number of animals with score 4” value in data set [2] (setting [4]) is reported as 0 animals. In addition, in data set [2] (tested at 5 mg/kg), the “Extent of disease by histologic score (combined): number of animals in scoring group 0.5” value is 1 animals, the “Extent of disease by histologic score (combined): number of animals in scoring group 1” value is on record as 3 animals and the “Extent of disease by histologic score (combined): number of animals in scoring group 2” value was determined as 1 animals. Further, the “Extent of disease by histologic score (combined): number of animals in scoring group 3” value in data set [2] (setting [5]) worked out at 2 animals. Further, the “Extent of disease by histologic score (combined): number of animals in scoring group 4” value in data set [2] (setting [6]) is reported as 0 animals. Further, in data set [2], the “Efficacy in treating PCP compared with control” value is “significantly better than the control”.
As for `N=C(N)c1ccc(OCCCCOc2ccc(C(=N)N)cc2)cc1` [Example 9, butamidine], the “Extent of Disease by Histologic Score: number of animals with score 0.5” value in data set [2] (0.1 mg/kg) and in data set [2] (1 mg/kg) was 0 animals in each case. Besides, the “Extent of Disease by Histologic Score: number of animals with score 1” value came out at 0 animals in data set [2] (0.1 mg/kg) and 1 animals in data set [2] (1 mg/kg). The “Extent of Disease by Histologic Score: number of animals with score 2” value in data set [2] (0.1 mg/kg) is given as 4 animals; in data set [2] (1 mg/kg) it was 3 animals; in data set [2] (10 mg/kg i.v. daily, 14 days), 0 animals. In addition, the “Extent of Disease by Histologic Score: number of animals with score 3” value in data set [2] (0.1 mg/kg, 10-50% of lung involved) is recorded as 5 animals; in data set [2] (1 mg/kg, 10-50% of lung involved), 5 animals; in data set [2] (10 mg/kg i.v. daily, 14 days, 10-50% of lung involved with some intense areas of infection), 0 animals. In addition, the “Extent of Disease by Histologic Score: number of animals with score 4” value was 2 animals in data set [2] (0.1 mg/kg, 4 = >50% of lung involved); 3 animals in data set [2] (1 mg/kg, 4 = >50% of lung involved); 0 animals in data set [2] (10 mg/kg i.v. daily, 14 days, 4 = >50% of lung involved with many intense areas of focal infection). Besides, the figures for the “Efficacy in treating PCP compared with pentamidine” value in data set [2] (1 mg/kg or 0.1 mg/kg) and in data set [2] (10 mg/kg unless otherwise noted) were “essentially no difference in the two compounds” and “significantly better than pentamidine in controlling pcp; also recorded: significantly better than pentamidine at the 10 mg/kg dosage level”, respectively. In addition, the “Extent of disease by histologic score (combined): number of animals in scoring group 0.5” value in data set [2] (10 mg/kg) amounted to 8 animals. Also, the “Extent of disease by histologic score (combined): number of animals in scoring group 1” value in data set [2] (10 mg/kg) is 0 animals. The “Extent of disease by histologic score (combined): number of animals in scoring group 2” value in data set [2] (10 mg/kg) is listed as 0 animals. The “Extent of disease by histologic score (combined): number of animals in scoring group 3” value in data set [2] (10 mg/kg, 10-50% of lung involved) was found to be 0 animals. In data set [2] (10 mg/kg, 4 = >50% of lung involved), the “Extent of disease by histologic score (combined): number of animals in scoring group 4” value is 0 animals.

These data come from patent publication US4933347A, “Diamidines and bis(imidazolines) for the treatment of and prophylaxis against pneumocystis carinii pneumonia” (University of North Carolina at Chapel Hill, priority 1988, dated 1990).
